According to the CheMixHub viscosity set:

Test: xn = mol fraction of the nth substance listed

ClC(Cl)C(Cl)Cl + CC#N
303.15 K, 101.32 kPa
Conditions | viscosity [mPa·s]
x2 = 0.1125 | 1.381
x2 = 0.2007 | 1.315
x2 = 0.2582 | 1.266
x2 = 0.3568 | 1.17
x2 = 0.4174 | 1.103
x2 = 0.4937 | 1.012
x2 = 0.5964 | 0.8767
x2 = 0.6989 | 0.7317
x2 = 0.8504 | 0.5162
x2 = 0.9233 | 0.4184

N#CCCO + CC#N
298 K, 101 kPa
Conditions | viscosity [mPa·s]
x1 = 0.1342 | 0.466
x1 = 0.2793 | 0.689
x1 = 0.4366 | 0.906
x1 = 0.6079 | 1.358
x1 = 0.7949 | 2.144

Oc1ccccc1 + CC(=O)c1ccccc1
303.15 K, 101 kPa
Conditions | viscosity [mPa·s]
x2 = 0.0901 | 4.976
x2 = 0.2182 | 4.319
x2 = 0.3102 | 3.905
x2 = 0.4048 | 3.519
x2 = 0.5083 | 3.131
x2 = 0.5936 | 2.839
x2 = 0.7241 | 2.404
x2 = 0.7583 | 2.295
x2 = 0.8846 | 1.887

COCCOCCOC + CC(C)(C)O
viscosity [mPa·s], 101 kPa
Conditions | x1 = 0.1032 | x1 = 0.2054 | x1 = 0.3014 | x1 = 0.4031 | x1 = 0.5025 | x1 = 0.6046 | x1 = 0.7072 | x1 = 0.8058 | x1 = 0.8973
298.15 K | 2.377 | 1.768 | 1.453 | 1.259 | 1.146 | 1.073 | 1.032 | 1.008 | 0.995
303.15 K | 1.954 | 1.523 | 1.274 | 1.123 | 1.033 | 0.974 | 0.943 | 0.921 | 0.915
308.15 K | 1.625 | 1.319 | 1.13 | 1.009 | 0.937 | 0.888 | 0.864 | 0.852 | 0.844

CC=CC(=O)O + CC(C)=O
viscosity [mPa·s], 101 kPa
Conditions | x1 = 0.0488 | x1 = 0.1 | x1 = 0.1504 | x1 = 0.1994 | x1 = 0.2534 | x1 = 0.2705
298.15 K | 0.3461 | 0.3887 | 0.4349 | 0.4858 | 0.5435 | 0.5686
303.15 K | 0.3299 | 0.3718 | 0.4141 | 0.461 | 0.5149 | 0.5368
308.15 K | 0.3157 | 0.3531 | 0.3935 | 0.4352 | 0.4883 | 0.5066
313.15 K | 0.3017 | 0.3379 | 0.3756 | 0.4196 | 0.463 | 0.4869
323.15 K | 0.2771 | 0.3079 | 0.342 | 0.3849 | 0.4184 | 0.438

ClC(Cl)C(Cl)Cl + CC(C)=O
298.15 K, 101 kPa
Conditions | viscosity [mPa·s]
x1 = 0.2 | 0.509
x1 = 0.4 | 0.811
x1 = 0.6 | 1.138
x1 = 0.8 | 1.499

OC(C(F)(F)F)C(F)(F)F + CC(C)=O
298.15 K, 101 kPa
Conditions | viscosity [mPa·s]
x2 = 0.2 | 1.35
x2 = 0.4 | 0.964
x2 = 0.5 | 0.838
x2 = 0.6 | 0.658
x2 = 0.8 | 0.45
x2 = 0.9 | 0.369
x2 = 0.95 | 0.336

Oc1ccccc1 + CC(C)=O
viscosity [mPa·s], 101 kPa
Conditions | 293.2 K | 302.95 K | 313.25 K | 322.95 K
x1 = 0.0613 | – | 0.36 | 0.328 | 0.299
x1 = 0.0926 | 0.429 | – | – | –
x1 = 0.1303 | – | 0.441 | 0.399 | 0.36
x1 = 0.1837 | 0.56 | – | – | –
x1 = 0.1912 | – | 0.521 | 0.47 | 0.422
x1 = 0.2695 | – | 0.67 | 0.59 | 0.53
x1 = 0.2749 | 0.755 | – | – | –
x1 = 0.3325 | – | 0.808 | 0.711 | 0.628
x1 = 0.3763 | 1.055 | – | – | –
x1 = 0.4181 | – | 1.058 | 0.904 | 0.794
x1 = 0.458 | 1.379 | – | – | –
x1 = 0.4832 | – | 1.319 | 1.101 | 0.95
x1 = 0.5364 | 1.853 | – | – | –
x1 = 0.5583 | – | 1.658 | 1.363 | 1.15
x1 = 0.6341 | 2.75 | – | – | –
x1 = 0.6402 | – | 2.18 | 1.741 | 1.425
x1 = 0.6982 | 3.59 | – | – | –
x1 = 0.7215 | – | 2.91 | 2.23 | 1.785
x1 = 0.7829 | 4.97 | – | – | –
x1 = 0.8187 | – | 3.915 | 2.875 | 2.245
x1 = 0.8885 | – | 4.905 | 3.465 | 2.615
x1 = 0.8891 | 7.3 | – | – | –

COCCOCCOC + CC(C)CC(C)(C)C
viscosity [mPa·s], 101.33 kPa
Conditions | x1 = 0.0931 | x1 = 0.1978 | x1 = 0.2916 | x1 = 0.4016 | x1 = 0.4538 | x1 = 0.5881 | x1 = 0.687 | x1 = 0.7926 | x1 = 0.8997
298.15 K | 0.49 | 0.511 | 0.538 | 0.58 | 0.602 | 0.668 | 0.726 | 0.808 | 0.887
303.15 K | 0.46 | 0.481 | 0.507 | 0.545 | 0.564 | 0.624 | 0.677 | 0.741 | 0.821
308.15 K | 0.435 | 0.455 | 0.478 | 0.512 | 0.529 | 0.584 | 0.632 | 0.69 | 0.762
313.15 K | 0.413 | 0.43 | 0.451 | 0.482 | 0.5 | 0.548 | 0.592 | 0.647 | 0.712
318.15 K | 0.389 | 0.405 | 0.425 | 0.453 | 0.468 | 0.512 | 0.553 | 0.601 | –

CCCCCCn1cc[n+](C)c1.F[B-](F)(F)F + CC(C)CO
101 kPa
Conditions | viscosity [mPa·s]
293.15 K, x1 = 0.5606 | 49.75
303.15 K, x1 = 0.8327 | 84.55
308.15 K, x1 = 0.1004 | 4.975

COCCOCCOC + CC(C)CO
viscosity [mPa·s], 101 kPa
Conditions | x1 = 0.104 | x1 = 0.2048 | x1 = 0.3058 | x1 = 0.4023 | x1 = 0.5027 | x1 = 0.605 | x1 = 0.7019 | x1 = 0.8023 | x1 = 0.9024
298.15 K | 2.146 | 1.635 | 1.377 | 1.231 | 1.136 | 1.076 | 1.038 | 1.011 | 0.995
308.15 K | 1.649 | 1.302 | 1.121 | 1.013 | 0.947 | 0.904 | 0.876 | 0.856 | 0.846
318.15 K | 1.284 | 1.047 | 0.938 | 0.845 | 0.796 | 0.78 | 0.747 | 0.733 | 0.726
